From patent US20050153872A1, “Methods and compositions for the treatment of infection” (priority 2004, published 2005) come the findings set out here.

Test [1] deals with Acenetobactor (20). Description: In vitro antibacterial activity (MIC), clinical isolates. Format: cell-based. On the procedure:
(§1) The following experiments were performed by Lab. of Pharmacology, National Sichuan antibiotic industril institute, Chengdu, Sichuan.
(§2) The following agents were used to test the in vitro activity of Ph-SA:
(§3) All the bacterial strains used in the experiments were clinical isolates collected from Sichuan and Beijing in 2002 and identified by West China Hospital, Sichuan University and Chongqing University of Medical Sciences with API system. The following strains were used in the experiments detailed below: Staphylococcus aureus 168 strains (MRSA 80 strains and MSSA 88 strains) Staphylococcus epidermidis 46 strains (MRSE 25 strains and MSSE 21 strains), Enterococcus 20 strains, and Acenetobactor 20 strains. Staphylococcus aureus ATCC25923, 29213 and BAA-42 were used as control strains. Bacterial strains were contacted with one of the above described compounds and MIC50, MIC90 and MICScope were determined.

The test system of test [2] is Enterococcus (20). The test is described as above. Format: cell-based. The note with it: 20 Enterococcus clinical isolates. How it is done:
as §1, §2, §3

The subject of test [3] is Staphylococcus aureus MRSA strain (80). The test is described as above. In kind it is cell-based. On the procedure: as §1, §2, §3
The subject of test [4] is Staphylococcus aureus MSSA strain (88). The description is as above. Format: cell-based. The note with it: Staphylococcus aureus, MSSA. On the procedure: as §1, §2, §3
For test [5], the system named is Staphylococcus epidermidis MRSE strain (25). The test is described as above. Format: cell-based. On the procedure:
as §1, §2, §3

The subject of test [6] is Staphylococcus epidermidis MSSE strain (21). The test is described as above. Format: cell-based. Conditions: Staphylococcus epidermidis, 21 MSSE clinical isolates. How it is done:
as §1, §2, §3

Test [7] concerns Enterococcus faecalis ATCC 700802. Description: microbe, parasite or virus in culture. Format: cell-based. Conditions: Enterococcus faecalis, ATCC700802.
The test system is the same in test [8]. Description: In vivo protection of infected mice. Also noted: species or system Kungming mice. How it is done:
(§4) The following experiments were performed by Pharmacology Lab, National Sichuan antibiotic industril institute, Chengdu, Sichuan.
(§5) The agents described above were diluted with sterilized water to final concentrations of 10 mg/L, 5 mg/Land 2.5 mg/L.
(§6) Staphylococcus aureus ATCC BAA-42(MRSA) and enterococcus faecalis ATCC 700802 were used as control strains.
(§7) 170 mice (Kungming mice: 18˜22 g, 85 males and 85 females) were randomly divided into four groups and injected with a fatal dosage of staphylococci, enterococcus and E. coli intraperitoneally. […] Mice were inspected every 24 hours for 7-14 days. Dead mice were counted as positive results. The results are depicted in Table 3 and FIGS. 4 and 5A-B.

The test system of test [9] is Staphylococcus aureus MRSA 02-18. Description: In vivo protection of infected mice. Also noted: species or system Kungming mice. On the procedure: as §4, §5, §6, §7
The test system of test [10] is Staphylococcus aureus MRSA BAA-42. Description: In vivo protection of infected mice. Details: species or system Kungming mice. How it is done:
as §4, §5, §6, §7

The test system is the same in test [11]. Description: microbe, parasite or virus in culture. Format: cell-based.
In test [12] the test system is Staphylococcus aureus MRSA 02-18. Description: microbe, parasite or virus in culture. In kind it is cell-based. Conditions: Staphylococcus aureus, MRSA.
Test [13] has as its system Staphylococcus aureus ATCC 29213. Description: MIC against challenge strain (Table 3). Format: cell-based.
Test [14] has as its system Escherichia coli 02-1-65. Description: In vivo protection of infected mice. Also noted: species or system Kungming mice. Conditions: i.p. infection 3.3 × 10^5 cfu/ml. On the procedure:
as §4
(§8) The agents described above were diluted with sterilized water to final concentrations of 10 mg/L, 5 mg/Land 2.5 mg/L. […]
as §7

Test [15] deals with Staphylococcus aureus ATCC 29213. Description: In vivo protection of infected mice. Details: species or system Kungming mice. Conditions: i.p. infection 3.6 × 10^5 cfu/ml. On the procedure:
as §4, §8, §7

Test [16] deals with Escherichia coli 02-1-65. Description: MIC against challenge strain (Table 3). Conditions: 02165, read-out: MIC. Format: cell-based.
In test [17] the test system is Candida albicans ATCC 10231. Description: In vitro cell growth inhibition assay (OD595, filaments). The note with it: Ph-CA 5 μg/ml; Ph-SA 5 μg/ml; ampicillin 50 μg/ml; amphotericin B 200 ng/ml; fluconazole 3 μg/ml.
Where [18] appears, read: Staphylococcus epidermidis, MRSE.
Setting [19] is: 1st Time, i.v. treatment after one hour.
[20] abbreviates: 2nd Time (value in parentheses), i.v. treatment.

Read-outs that look alike come from different tables or passages of the source. Where only a bound is given, the exact number is not on record here.

As to `CC1(C)S[C@@H]2[C@H](NC(=O)[C@H](N)c3ccccc3)C(=O)N2[C@H]1C(=O)O` [Ampicillin, sodium ampicillin], the MIC50 is above 128 µg/mL in test [1]; 0.5 µg/mL in test [2] (read-out: MIC50); 16 µg/mL in test [3] (Staphylococcus aureus, MRSA); 0.25 µg/mL in [4]; 16 µg/mL in [5] (setting [18]); 0.03 µg/mL in [6] (read-out: MIC50). For the same molecule, the MIC90 is above 128 µg/mL in test [1]; 16 µg/mL in test [2] (read-out: MIC90); 32 µg/mL in [3] (Staphylococcus aureus, MRSA); 1 µg/mL in test [4]; 64 µg/mL in test [5] (setting [18]); 0.25 µg/mL in [6] (read-out: MIC90). The MIC in test [2] was 0.25 to 16 µg/mL; in test [4] (read-out: MIC Scope) it was 0.015 to 0.25 µg/mL; in [6], 0.015 to 0.25 µg/mL; in test [7], 0.125 µg/mL; in test [11] (Staphylococcus aureus), 0.25 µg/mL; in [12], 8 µg/mL. In addition, the MIC in [13] (ATCC29213, read-out: MIC) is below 0.015 µg/mL; in [16] it was above 128 µg/mL. Further, the “MIC Scope” value in test [3] (80 MRSA clinical isolates) and in [5] (25 MRSE clinical isolates) was 0.06˜64 mg/l throughout. Also, the ED50 in test [8] (Enterococcus faecalis, ATCC700802) is 3 mg/kg; in [8] (Enterococcus faecalis, ATCC700802, 1 h), 3.37 mg/kg; in test [9] (Staphylococcus aureus, MRSA) it was above 20 mg/kg; in test [9] (Staphylococcus aureus, MRSA, 1 h), 32.7 mg/kg; in test [10] (Staphylococcus aureus), 23.4 mg/kg; in [10] (Staphylococcus aureus, 1 h), 25.2 mg/kg. For the same molecule, the ED50 in test [14] (Escherichia coli, 02165, 2nd Time (value in parentheses), i.v. treatment, read-out: ED50) was above 30.8 mg/kg; in [14] (Escherichia coli, 02165, 1 h, 1st Time, i.v. treatment after one hour, read-out: ED50), above 30.8 mg/kg; in [15] (Staphylococcus aureus, ATCC29213, 2nd Time (value in parentheses), i.v. treatment, read-out: ED50), 12.3 mg/kg; in test [15] (Staphylococcus aureus, ATCC29213, 1 h, 1st Time, i.v. treatment after one hour, read-out: ED50) it was 14.2 mg/kg. For the same molecule, the “effect on growth of Candida albicans” value in test [17] is reported as “no effect on the growth”.

For the molecule `Cc1nnc(SCC2=C(C(=O)[O-])N3C(=O)[C@@H](NC(=O)Cn4cnnn4)[C@H]3SC2)s1.[Na+]` [Cephazoid, sodium Cephazoid], the ED50 in [8] (1st Time, mice, i.p. infection 8.0 × 10^6 cfu/ml, i.v. treatment after one hour) is recorded as above 10 mg/kg; in test [8] (2nd Time (value in parentheses), mice, i.p. infection 8.0 × 10^6 cfu/ml, i.v. treatment), “(12.91) mg/kg”; in test [9] (1st Time, mice, i.p. infection 1.7 × 10^5 cfu/ml, i.v. treatment after one hour), 11.82 mg/kg; in [9] (2nd Time (value in parentheses), mice, i.p. infection 1.7 × 10^5 cfu/ml, i.v. treatment), “(>10) mg/kg”; in [10] (1st Time, mice, i.p. infection 5.5 × 10^5 cfu/ml, i.v. treatment after one hour), 9.04 mg/kg; in [10] (2nd Time (value in parentheses), mice, i.p. infection 5.5 × 10^5 cfu/ml, i.v. treatment), “(8.78) mg/kg”. The ED50 in test [14] (setting [19]) is given as above 30.77 mg/kg; in [14] (setting [20]) it was “(>30.77) mg/kg”; in test [15] (setting [19]), 29.03 mg/kg; in test [15] (setting [20]), “(11.20) mg/kg”. The MIC in test [11] (Staphylococcus aureus MRSA BAA-42) amounted to 0.5 µg/mL; in test [13], 0.03 µg/mL.
